Laboratory results from patent US20030032587A1, “Urocortin peptides” (The Salk Institute for Biological Studies, priority 1995, published 2003).
Bridges are numbered along the chain shown (N, C = ends). Where no end group is shown, it is not given here. [ ]: non-standard residue; d: D form.

Assays:
[1] = tested on: primary murine anterior pituitary cells; assay type: cell-based; conditions: for ACTH secretion in vitro, times as effective as r/hCRF (confidence limits): anterior pituitary cell cultures, relative to r/hCRF; for stimulates the secretion of ACTH and β-END-LI (β-endorphin): result in words
Source text: (§1) A straightforward assay using rat anterior pituitary cells in monolayer culture can be carried out to determine whether a candidate peptide thereof will function as a CRF agonist and stimulate ACTH secretion by activating CRF receptors on such cells. The procedure which is used is that generally set forth in Endocrinology, 91, supra. A very similar assay is used to test for antagonistic properties, using a challenge dose of oCRF or the like.
To test the ability of purified Ucn or another candidate Ucn-like peptide to function as a CRF agonist and to promote ACTH production and/or secretion, cultures of dispersed primary murine anterior pituitary cells (0.15×10^6 cells/well are used), as generally described in Vale et al. Meth. Enzym., 103, 565-577 (1983), and in Endocrinology, 91, 562 (1972). These cultures are maintained in 0.5 ml/well of β-PJ (a reagent available from Kansas City Biochemicals) containing 2% fetal bovine serum. On the morning of culture day 5, the cells are washed 3 times with β-PJ containing 0.1% bovine serum albumin and then incubated for 1 hour at 37° C. in the same medium. The medium is then replaced with Ucn, or an analog thereof, diluted in β-PJ containing 0.1% bovine serum albumin. Incubations are terminated after 3 hours, at which time the medium is removed and stored at −20° C. until ACTH radioimmunoassays are performed using a suitable kit, such as that commercially available from Diagnostic Products Corporation of Los Angeles, Calif. Secreted ACTH is measured using Allfit computer program with results expressed as the average±s.e.m. of 3 replicate bioassays.

[2] = tested on: mammalian systemic blood pressure; test: mammalian vasodilatory-hypotensive activity; assay type: in vivo; conditions: result in words
[3] = tested on: rat anterior pituitary cells; test: ACTH secretion by anterior pituitary cell cultures in the presence of a challenge dose of ovine CRF (antagonist test); assay type: cell-based; conditions: for inhibition of ACTH secretion in vitro, times as effective as the Standard Antagonist (confidence limits): challenge dose of ovine CRF, relative to [D-Phe12,Nle21,38]-r/hCRF(12-41); for bioactivity as Ucn antagonists: result in words, test not specified
Source text: as §1
An in vivo test measuring elevation of mean arterial blood pressure as a result of iv injection is also simply and straightforwardly performed.

[4] = tested on: mammalian mean arterial blood pressure; test: in vivo test measuring elevation of mean arterial blood pressure as a result of iv injection; conditions: result in words; indicative of a Ucn antagonist
Source text: The peptide, Ucn(11-40), having the amino acid sequence (see SEQ ID NO: 8): […] is synthesized in the manner described in Example I. To evaluate the biological activity of a candidate peptide as a Ucn antagonist (which will be indicative of its effective binding to CRF receptors), the previously mentioned assay from Endocrinology, 91, supra, is run in the presence of a challenge dose of ovine CRF. […] An in vivo test measuring elevation of mean arterial blood pressure as a result of iv injection is also simply and straightforwardly performed.

| Substance | ACTH secretion in vitro, times as effective as r/hCRF (confidence limits) [1] | stimulates the secretion of ACTH and β-END-LI (β-endorphin) [1] | vasodilatory-hypotensive activity, including lowering systemic blood pressure and stimulating the secretion of ACTH [2] | other results |
| --- | --- | --- | --- | --- |
| Ac-Pro-D-Pro-Leu-Ser-Ile-Asp-Leu-Thr-D-Phe-His-Leu-Leu-Arg-Thr-Leu-Leu-Glu-Leu-Ala-Arg-Thr-Gln-Ser-Gln-Arg-Glu-Glu-Ala-Glu-Lys-Asn-Arg-Ile-Ile-Phe-Asp-Ser-Val-NH2 (Ac-P[dP]LSIDLT[dF]HLLRTLLELARTQSQREEAEKNRIIFDSV-NH2; lactam 27-30 (inferred)) | 9.90 (4.48-22.85) | stimulates the secretion of ACTH and β-END-LI | causes vasodilatory-hypotensive activity |  |
| Ac-Pro-D-Ser-Leu-Ser-Ile-Asp-Leu-Thr-D-Phe-His-Leu-Leu-Arg-Thr-Leu-Leu-Glu-Leu-Ala-Arg-Thr-Gln-Ser-Gln-Arg-Glu-Glu-Ala-Glu-Lys-Asn-Arg-Ile-Ile-Phe-Asp-Ser-Val-NH2 (Ac-P[dS]LSIDLT[dF]HLLRTLLELARTQSQREEAEKNRIIFDSV-NH2; lactam 27-30 (inferred)) | 5.69 (2.43-14.49) | stimulates the secretion of ACTH and β-END-LI | causes vasodilatory-hypotensive activity |  |
| Ac-Pro-Ser-Leu-Ser-Ile-Asp-Leu-Thr-D-Phe-His-Leu-Leu-Arg-Thr-Leu-Leu-Glu-Leu-Ala-Arg-Thr-Gln-Ser-Gln-Arg-Glu-Glu-Ala-D-Glu-Lys-Asn-Arg-Ile-Ile-Phe-Asp-Ser-Val-NH2 (Ac-PSLSIDLT[dF]HLLRTLLELARTQSQREEA[dE]KNRIIFDSV-NH2; lactam 27-30 (inferred)) | 6.14 (2.83-14.05) | stimulates the secretion of ACTH and β-END-LI | causes vasodilatory-hypotensive activity |  |
| Ac-Pro-Ser-Leu-Ser-Ile-Asp-Leu-Thr-Phe-His-Leu-Leu-Arg-Thr-Leu-Leu-Glu-Leu-Ala-Arg-Thr-Gln-Ser-Gln-Arg-Glu-Arg-Ala-Glu-Gln-Asn-Arg-Ile-Ile-Phe-Asp-Ser-Val-NH2 (Ac-PSLSIDLTFHLLRTLLELARTQSQRERAEQNRIIFDSV-NH2) [[Ac-Pro^3]-hUcn(3-40)] |  | stimulates the secretion of ACTH and β-END-LI | causes vasodilatory-hypotensive activity |  |
| H-Asp-Asn-Pro-Ser-Leu-Ser-Ile-Asp-Leu-Thr-Phe-His-Leu-Leu-Arg-Thr-Leu-Leu-Glu-Leu-Ala-Arg-Thr-Gln-Ser-Gln-Arg-Glu-Arg-Ala-Glu-Gln-Asn-Arg-Ile-Ile-Phe-Asp-Ser-Val-NH2 (H-DNPSLSIDLTFHLLRTLLELARTQSQRERAEQNRIIFDSV-NH2) [Human Ucn(1-40)] | 3.10 (1.41-6.65) |  | significant mammalian vasodilatory-hypotensive activity |  |
| H-D-Phe-His-Leu-Leu-Arg-Thr-Leu-Leu-Glu-Leu-Ala-Arg-Thr-Gln-Ser-Gln-Arg-Glu-Arg-Ala-Glu-Gln-Asn-Arg-Ile-Ile-Phe-Asp-Ser-Val-NH2 (H-[dF]HLLRTLLELARTQSQRERAEQNRIIFDSV-NH2; SMILES CC[C@H](C)[C@H](NC(=O)[C@H](CCCNC(=N)N)NC(=O)[C@H](CC(N)=O)NC(=O)[C@H](CCC(N)=O)NC(=O)[C@H](CCC(=O)O)NC(=O)[C@H](C)NC(=O)[C@H](CCCNC(=N)N)NC(=O)[C@H](CCC(=O)O)NC(=O)[C@H](CCCNC(=N)N)NC(=O)[C@H](CCC(N)=O)NC(=O)[C@H](CO)NC(=O)[C@H](CCC(N)=O)NC(=O)[C@@H](NC(=O)[C@H](CCCNC(=N)N)NC(=O)[C@H](C)NC(=O)[C@H](CC(C)C)NC(=O)[C@H](CCC(=O)O)NC(=O)[C@H](CC(C)C)NC(=O)[C@H](CC(C)C)NC(=O)[C@@H](NC(=O)[C@H](CCCNC(=N)N)NC(=O)[C@H](CC(C)C)NC(=O)[C@H](CC(C)C)NC(=O)[C@H](Cc1c[nH]cn1)NC(=O)[C@H](N)Cc1ccccc1)[C@@H](C)O)[C@@H](C)O)C(=O)N[C@H](C(=O)N[C@@H](Cc1ccccc1)C(=O)N[C@@H](CC(=O)O)C(=O)N[C@@H](CO)C(=O)N[C@H](C(N)=O)C(C)C)[C@@H](C)CC) [[D-Phe^11]-Ucn(11-40)] |  |  |  | inhibition of ACTH secretion in vitro, times as effective as the Standard Antagonist (confidence limits) [3]: 0.551 (0.333-0.857); vasoconstrictive activity causing elevation of mean arterial blood pressure [4]: significant mammalian vasoconstrictive activity |
| H-D-Phe-His-Leu-Leu-Arg-Thr-Leu-Leu-Glu-Leu-Ala-Arg-Thr-Gln-Ser-Gln-Arg-Glu-Glu-Ala-D-Glu-Lys-Asn-Arg-Ile-Ile-Phe-Asp-Ser-Val-NH2 (H-[dF]HLLRTLLELARTQSQREEA[dE]KNRIIFDSV-NH2; lactam 19-22 (inferred)) |  |  |  | inhibition of ACTH secretion in vitro, times as effective as the Standard Antagonist (confidence limits) [3]: 4.72 (2.19-10.00); vasoconstrictive activity causing elevation of mean arterial blood pressure [4]: significant mammalian vasoconstrictive activity |
| H-D-Phe-His-Leu-Leu-Arg-Thr-Leu-Leu-Glu-Leu-Ala-Arg-Thr-Gln-Ser-Gln-Arg-Glu-Glu-Ala-Glu-Lys-Asn-Arg-Ile-Ile-Phe-Asp-Ser-Val-NH2 (H-[dF]HLLRTLLELARTQSQREEAEKNRIIFDSV-NH2; lactam 19-22 (inferred)) |  |  |  | inhibition of ACTH secretion in vitro, times as effective as the Standard Antagonist (confidence limits) [3]: 10.34 (4.27-25.58); vasoconstrictive activity causing elevation of mean arterial blood pressure [4]: significant mammalian vasoconstrictive activity |
| H-Tyr-Asp-Asp-Pro-Pro-Leu-Ser-Ile-Asp-Leu-Thr-Phe-His-Leu-Leu-Arg-Thr-Leu-Leu-Glu-Leu-Ala-Arg-Thr-Gln-Ser-Gln-Arg-Glu-Arg-Ala-Glu-Gln-Asn-Arg-Ile-Ile-Phe-Asp-Ser-val-NH2 [[Tyr^∘]rUcn(1-40)] | 2.20 (1.28-3.88) |  | significant mammalian vasodilatory-hypotensive activity |  |
| H-[dY]DNPSLSIDLTFHLLRTLLELARTQSQRERAEQNRIIFDSV-NH2 [[D-Tyr^∘]hUcn(1-40)] | 1.23 (0.60-2.54) |  | significant mammalian vasodilatory-hypotensive activity |  |
| Ucn (10-40) (TFHLLRTLLELARTQSQRERAEQNRIIFDSV; ends and bridges not checked; UniProt P55089 92-122, looked up, fragment) |  |  |  | bioactivity as Ucn antagonists [3]: bioactivity as Ucn antagonists |
| [Ac-Thr^10]Ucn(10-40) |  |  |  | bioactivity as Ucn antagonists [3]: bioactivity as Ucn antagonists |
